Measurements published in patent US10239903B2, “Pt (IV) derivatives and nanocarriers comprising them” (Yissum Research Development Company of the Hebrew …, priority 2014, dated 2019).

Legend:
A2780 cell line = assay: MTT cytotoxicity assay; type: cell-based; details: for IC50: cisplatin sensitive parent line; for IC50 A2780: 120 h treatment
Description: (§4) To evaluate the efficacy of the various drugs, cells were seeded in a sterile, 24-well plate and incubated in the presence of the drug for 72 h/120 h at 37° C., 5% CO2. The number of cells alive was quantified using (3-(4,5-dimethylthiazol-2-yl)-2,5 diphenyltetrazolium bromide) (MTT) assay. The cells were incubated for 2 h with MTT, DMSO was added to dissolve the crystals and the plates were measured at 540 nm. Viability (%) graphs were constructed relative to the control of every assay. The data were plotted in a graph, lines connected the points, and the values were determined from the interpolated graph.

A2780-cisR cell line = assay: MTT cytotoxicity assay; type: cell-based; details: for IC50: cisplatin resistant line; for RF, resistance factor: ratio of IC50 in A2780-cisR to A2780; for IC50 A2780-cisR: 120 h treatment
Description: as §4

A549 cell line = assay: MTT cytotoxicity assay; type: cell-based; details: 120 h treatment
Description: A549, BxPC-3 and OVCAR-8 cells were grown in RPMI medium supplemented with 10% fetal bovine serum (Gibco), 1% L-glutamine, 100 U/ml penicillin, 100 ug/ml streptomycin and 0.13% w/w gentamycin. […] The cell lines were maintained at 37° C. under 5% CO2. All cell culture products were obtained from Biological Industries (Beit HaEmek, Israel). The drugs were dissolved in DMSO and were added to the appropriate medium. Drug concentrations were chosen in a range that would never expose cells to more than 0.5% DMSO i.e. for 50 μg/ml maximal concentration; 0.5 mg of OXA-PAL-ACT was dissolved in 50 μl DMSO and then added to 10 ml cell medium.
as §4

HCT-15 cell line = assay: MTT cytotoxicity assay; type: cell-based; details: 120 h treatment
Description: as §4

A498 cell line = assay: MTT cytotoxicity assay; type: cell-based; details: 120 h treatment
Description: as §4

A375 cell line = assay: MTT cytotoxicity assay; type: cell-based; details: 120 h treatment
Description: as §4

BxPc-3-luc2 cell line = assay: MTT antiproliferative assay; type: cell-based, human
Description: (§1) The antiproliferative activities of the novel compound (free and incorporated in NPs) and OXA were determined in HCT 116-luc2 (human colorectal cancer) and BxPc-3-luc2 (human pancreatic cancer) cell lines by the MTT assay.

HCT 116-luc2 cell line = assay: MTT antiproliferative assay; type: cell-based, human
Description: as §1

CT-26-luc cell line = assay: MTT antiproliferative assay; type: cell-based, murine; details: 120 h incubation
HaCaT cell line = details: non-cancer human keratinocytes
From the text: (§2) HaCaT cell line monolayer representing human keratinocytes, RASM line monolayer representing Rat Aortic Smooth Muscle cells.

[1] = system: RASM (Rat Aortic Smooth Muscle cells); details: non-cancer Rat Aortic Smooth Muscle cells
From the text: as §2

[2] = system: SKOV-3 and SKOV-3-luc cells; assay: Whole-cell Pt accumulation (cellular uptake) by ICP-MS; type: cell-based, human; details: 24 h exposure, 5, 15, 25 μg/ml
Description: (§3) Following incubation, the drug-containing medium was removed, and cells were rinsed twice with cold PBS, trypsinized and were centrifuged into a pellet (4400 rpm, 5 min). 500 μl of nitric acid was added to cell pellets, and overnight incubated at 70° C. The samples were prepared by dilution using 0.1% SDS and 1% nitric acid lysis solution, and analyzed for Pt content by ICP-MS. DNA was isolated and purified from cell lines with the DNeasy Blood and Tissue Kit (Qiagen).
Cellular accumulation of platinum is a key step in cellular platinum drug pharmacology.

SKOV-3 cells = assay: DNA platination by ICP-MS; type: cell-based, human; details: 24 h exposure, 25 μg/ml
Description: as §3

SKOV-3 luc tumor = assay: Ovarian carcinoma mouse model, bioluminescent imaging; type: in vivo, SCID mice; details: from day 60; 15 mg/kg i.v. once a week, 4 treatments
Description: For induction of an ovarian carcinoma mouse model, 5-6 weeks-old severe combined immunodeficiency (SCID) mice, divided into 4 groups, were injected with 2×10^6 SKOV-3 luc cells directly into intraperitoneal cavity (i.p.). The cells were suspended in 100 μl PBS.
All treatments were given in an identical treatment regimen.

BxPc-3-luc2 tumor = assay: Pancreatic carcinoma mouse model, bioluminescent imaging; type: in vivo, SCID-bg mice; details: i.v. once a week, 4 treatments
From the text: 5-6 weeks-old SCID mice were inoculated subcutaneously with 2×10^6 BxPC-3-luc cells.
Pancreatic tumors were induced by subcutaneous injection of the luciferase-transfected pancreas adenocarcinoma cells, BxPc-3-luc2, to SCID-bg mice. Tumor development and progression was validated by bioluminescent imaging. On the eighth day following tumor cells injection, a four-treatment cycle (intravenous route) was initiated (once a week).

HCT-116-luc2 tumor = assay: Colon cancer mouse model, bioluminescent imaging; type: in vivo, SCID-bg mice; details: 33 days from inoculation; 9 mg/kg OPA equivalent to 5 mg/kg OXA, i.v. every fourth day
Description: 5-6 weeks-old SCID mice were inoculated subcutaneously with 1×10^6 HCT-116-luc2 cells. 1 day following tumor inoculation, treatment was initiated. Treatment was administered once every fourth day by i.v. injection (tail), 4 treatments in total.
Results are presented as mean±SEM. […] In fact equivalent doses were […] since 9 mg/kg OPA is equivalent to 5 mg/kg OXA.

[3] = Reduction potentials by cyclic voltammetry; type: physicochemical; details: versus Ag/AgCl
[4] = for body weight variation over time: OXA 5 mg/kg, OXA-PAL-ACT 15 mg/kg i.v. once a week; for maximum tolerated dose: i.v., solution
PC-3 cell line = assay: MTT cytotoxicity assay; details: for IC50 PC-3: 120 h treatment; for IC50: read-out: IC50 PC-3, 120 h incubation
Description: (§5) The in vitro experiments were performed in cell lines of lung cancer (A549), prostate cancer (DU145 and PC-3), pancreatic cancer (BxPC-3) and ovarian cancer (SKOV-3 and OVCAR-8). A549, BxPC-3 and OVCAR-8 cells were grown in RPMI medium supplemented with 10% fetal bovine serum (Gibco), 1% L-glutamine, 100 U/ml penicillin, 100 ug/ml streptomycin and 0.13% w/w gentamycin. PC-3 cells were cultured in DMEM plus 10% fetal bovine serum, 1% L-glutamine, 100 U/ml penicillin, 100 μg/ml streptomycin and 1% pyrovate. DU145 cells were grown in RPMI1640 medium supplemented with 10% fetal bovine serum, 100 U/ml penicillin, and 100 ug/ml streptomycin. SKOV-3 cells were cultured McCoy's 5A medium supplemented with 10% fetal bovine serum, 100 U/ml penicillin, and 100 ug/ml streptomycin. The cell lines were maintained at 37° C. under 5% CO2. […] The drugs were dissolved in DMSO and were added to the appropriate medium. Drug concentrations were chosen in a range that would never expose cells to more than 0.5% DMSO i.e. for 50 μg/ml maximal concentration; 0.5 mg of OXA-PAL-ACT was dissolved in 50 μl DMSO and then added to 10 ml cell medium.
as §4
(§6) The cells were treated continuously for 120 h.

PC-3 LUC cell line = assay: MTT cytotoxicity assay; details: for IC50 PC-3 LUC: 120 h treatment; for IC50: read-out: IC50 PC-3-luc, 120 h incubation
Description: as §4, §6

BxPC-3 cell line = assay: MTT cytotoxicity assay; details: for IC50 BXPC-3: 120 h treatment; for IC50: read-out: IC50 BxPC-3, 120 h incubation
Description: as §5, §4, §6

OVCAR-8 cell line = assay: MTT cytotoxicity assay; details: for IC50 OVCAR-8: 120 h treatment; for IC50: read-out: IC50 OVCAR-8, 120 h incubation
Description: as §5, §4, §6

SKOV-3 cell line = assay: MTT cytotoxicity assay; details: for IC50 SKOV-3: 120 h treatment; for IC50: read-out: IC50 SKOV-3, 120 h incubation
Description: as §5, §4, §6

[5] = Log P determination, shake flask method; details: n-octanol and water
Description: The partition coefficient of the new Pt compounds was determined in n-octanol and water by shake flask method.

Structure (SMILES)	IC50 (A2780 cell line) [nM]	IC50 (A2780-cisR cell line) [nM]	RF, resistance factor (A2780-cisR cell line)	IC50 A549 (A549 cell line) [µg/mL]	IC50 HCT-15 (HCT-15 cell line) [µg/mL]	IC50 A498 (A498 cell line) [µg/mL]	IC50 A375 (A375 cell line) [µg/mL]	IC50 (CT-26-luc cell line) [nM]	Ep, reduction potential [3] [V]	IC50 PC-3 (PC-3 cell line) [µg/mL]	IC50 (PC-3 cell line) [nM]	IC50 PC-3 LUC (PC-3 LUC cell line) [µg/mL]	IC50 (PC-3 LUC cell line) [nM]	IC50 BXPC-3 (BxPC-3 cell line) [µg/mL]	IC50 (BxPC-3 cell line) [nM]	IC50 OVCAR-8 (OVCAR-8 cell line) [µg/mL]	IC50 (OVCAR-8 cell line) [nM]	IC50 SKOV-3 (SKOV-3 cell line)	IC50 (SKOV-3 cell line) [nM]	Measured logP [5]	also measured
N.N.[Cl][Pt][Cl] [Cisplatin, cisplatin, reference compound]	940 ± 40	14600 ± 1440	15.53	8.35	11.32	17.53	3.75 ± 1.77	–	–	–	–	–	–	–	–	–	–	–	–	–	–
CCCCCCCCCCCCCCCC(=O)[O][Pt]12([O]C(C)=O)([NH]C3CCCCC3[NH]1)[O]C(=O)C(=O)[O]2 (centres unmarked) [OXA-PAL-ACT, oxaliplatin palmitate acetate]	360 ± 10	340 ± 10	0.93	0.34	0.43	0.20	0.16	620 ± 240	−0.54 ± 0.02	0.25 ± 0.01	350 ± 10	0.33 ± 0.08	460 ± 110	0.25 ± 0.01	350 ± 10	0.33 ± 0.03	460 ± 30	0.39 ± 0.02 µg/mL	540 ± 30	2.06	IC50 A2780 (A2780 cell line): 0.26 µg/mL; IC50 A2780-cisR (A2780-cisR cell line): 0.24 µg/mL; resistance factor (A2780-cisR cell line; calculated from IC50 values of dose-response curves, A2780-cisR vs A2780 (FIG. 10)): 1; IC50 (BxPc-3-luc2 cell line): 310 ± 90 nM; IC50 (HCT 116-luc2 cell line): 370 ± 20 nM; therapeutic ratio in HaCaT (HaCaT cell line): higher than 1.8; therapeutic ratio in RASM [1]: > 2; cellular accumulation of platinum [2]: substantially higher compared to that of oxaliplatin; nucleus DNA platination (SKOV-3 cells): higher DNA-platination; tumor growth (bioluminescence) efficacy (SKOV-3 luc tumor): more efficient that OXA; pancreatic tumor growth inhibition (BxPc-3-luc2 tumor): significantly more efficient in pancreatic tumor growth inhibition compared to OXA and the control; tumor growth inhibition (HCT-116-luc2 tumor): no significant efficacy difference; body weight variation over time [4]: did not reduce the animal weight; maximum tolerated dose [4]: 15 mg/kg; observed Log P ([5]; n=5): 2.76±0.14
CCCCCCCCCCCCCCCC(=O)[O][Pt]1([O]C(=O)CCC(=O)O)[O]C(=O)C(=O)[O]1.NC1CCCCC1N [OXA-PAL-SUCC]	460 ± 10	1900 ± 200	4.13	0.45	0.35	0.24	0.19	4430 ± 930	−0.60 ± 0.01	0.35 ± 0.01	450 ± 10	0.78 ± 0.88	1010 ± 1130	1.23 ± 1.18	1590 ± 1520	2.83 ± 0.38	3670 ± 490	20.67 ± 15.88 µg/mL	26800 ± 20600	2.07	–
CCCCCCCCCCCCCCCC(=O)[O][Pt]1([O]C(=O)CCCCCCCCCCCCCCC)[O]C(=O)C(=O)[O]1.NC1CCCCC1N [OXADP, oxaliplatin dipalmitate]	7500 ± 500	> 55000	>7.3	–	–	–	–	> 55000	−0.53 ± 0.02	2.20 ± 1.21	2420 ± 1330	21.35 ± 19.30	23500 ± 21200	24.07 ± 12.96	26500 ± 14300	16 ± 3.12	17600 ± 3430	N.D* (N.D—Not Determined (The IC50 value is higher than maximal tested concentration-50 μg/ml))	> 55000	3.49	–
O=C1[O][Pt]2([NH][C@@H]3CCCC[C@H]3[NH]2)[O]C1=O [Oxaliplatin, reference compound]	780 ± 20	4100 ± 250	–	–	–	–	–	5600 ± 600	–	3.63 ± 0.15	9160 ± 370	11 ± 3.60	27700 ± 9050	1.35 ± 0.35	3380 ± 870	3.75 ± 1.77	9440 ± 4440	32.5 ± 3.54 µg/mL	58300 ± 6340	–	IC50 A2780 (A2780 cell line): 0.31 µg/mL; IC50 A2780-cisR (A2780-cisR cell line): 1.63 ± 0.11 µg/mL; IC50 (BxPc-3-luc2 cell line): 62700 ± 2520 nM; IC50 (HCT 116-luc2 cell line): 2300 ± 1080 nM; pancreatic tumor growth inhibition (BxPc-3-luc2 tumor): did not show any efficacy; body weight variation over time [4]: marked weight reduction; maximum tolerated dose [4]: 5 mg/kg
